{"source": "patent US20230141718A1", "about": "“METHODS OF TREATING GLIOBLASTOMA” (CELGENE QUANTICEL RESEARCH, INC., priority 2021, published 2023)", "key": {"[1]": {"experiment": "Brain tumor tissue, plasma and CSF concentration at resection, CC-90010-GBM-001", "type": "in vivo, human", "description": "(§1) The primary objectives of the study in this example were determination of tumor tissue concentration and plasma pharmacokinetics (PK) of Compound A. The secondary and exploratory objectives included safety, antitumor activity, cerebrospinal fluid concentration, and pharmacodynamics (PD).\n(§2) Patients were treated with Compound A at 30 mg daily on Day 1 to Day 4 prior to undergoing indicated tumor resection and to maintain platelet count above the minimum of […] recommended for surgery (Part A, preoperative treatment). Following recovery from surgery and a minimum of 4 weeks from the first dose of Compound A, subjects who were fit to continue were treated with Compound A at 45 mg on a 4 days on/24 days off schedule (180 mg per 28-day cycle). Maintenance treatment continued until disease progression, unacceptable toxicity, or withdrawal of consent.\nThe geometric mean peak of Compound A plasma concentration on Day 4 was 1.90 μM, and the median time to peak concentration was 1.75 hours. The median time from the day 4 dose of Compound A to resection was 23 hours (range, 4.6-31.3). […] At the time of resection, the geometric mean concentrations of Compound A in plasma and brain tumor tissue were 1.02 and 0.74 μM, respectively. Geometric mean free Compound A concentration in brain tissue was calculated to be 0.028 μM. Geometric mean Compound A concentration in CSF (cerebrospinal fluid) was 0.14 μM, and the mean CSF:plasma ratio was 0.17. None of the brain tumor tissue samples for PK analyses was confirmed to comprise homogeneous contrast-enhancing or non-enhancing tumor tissue, precluding measurement in these subgroups.\nAt Cycle 1 Day 4, the concentration of Compound A was measured in resected brain tumor from 20 subjects at 6 to 24-hour post dose. At the time of resection (N=19), the mean (f SDev) concentration of Compound A in plasma was 397 f 77.78 ng/mL (geometric mean: 389.23 ng/mL; coefficient of variation: 20.1%). The mean ratio of compound concentration in the resected brain tissue to compound concentration in plasma is 0.84 f 0.25 for 19 of the 20 subjects."}, "[2]": {"system": "HEXIM1 (hexamethylene bis-acetamide-inducible protein 1) mRNA", "experiment": "Blood and tumor HEXIM1 mRNA pharmacodynamics, CC-90010-GBM-001", "type": "in vivo, human", "description": "as §1, §2\nBlood HEXIM1 (hexamethylene bis-acetamide-inducible protein 1) mRNA was increased at 72-96 hours following first dose, and the percentage increase correlated with plasma concentration of Compound A at surgery. Tumor HEXIM1 RNA increased in 10 of 11 patients. Additionally, blood HEXIM1 mRNA expression was increased in all subjects at 72-96 hours following the first dose. Percentage HEXIM1 increase was related to plasma Compound A concentration at biopsy."}, "[3]": {"system": "progressive or recurrent astrocytoma or recurrent glioblastoma", "experiment": "Antitumor response per RANO and PFS, CC-90010-GBM-001", "type": "in vivo, human", "source_text": "The Response Assessment in Neuro-Oncology criteria (RANO) is used to assess response to first-line treatment of glioblastoma. See, Leao, D. J. et al., American Journal of Neuroradiology 2019, 1-11. The RANO criteria divides response into four types of response based on imaging (MRI) and clinical features: (1) complete response (CR); (2) partial response (PR); (3) stable disease (SD); and (4) progression. For this assessment, a measurable disease is defined as bidimensional contrast-enhancing lesions with clearly defined margins, with 2 perpendicular diameters of at least 10 mm, visible on ≥2 axial slices. The nonmeasurable disease is defined as either unidimensional measurable lesions, masses with margins not clearly defined as frequently noted in the surgical margins, or lesions with maximal perpendicular diameters of <10 mm.\n(§3) The study described in this example (CC-90010-GBM-001 study/NCT04047303) enrolled patients with progressive or recurrent astrocytoma or recurrent glioblastoma who have failed radiation and chemotherapy, and who are candidates for surgical tumor resection as part of their salvage regimen.\nas §2"}, "[4]": {"experiment": "Plasma pharmacokinetics of Compound A, CC-90010-GBM-001 study", "type": "in vivo, human", "source_text": "as §1, §3, §2\nThe blood PK, blood PD, tumor PK and tumor PD data were available for 20, 12, 20, and 11 patients, respectively."}, "[5]": {"experiment": "Safety (TRAEs/TEAEs), CC-90010-GBM-002 Parts A and B", "type": "in vivo", "source_text": "This was then followed by a break in treatment therapy, e.g., from 1 to up to 4 weeks. […] Adjuvant therapy cycles were repeated from 2 to 6 times. After adjuvant therapy, was a monotherapy treatment.\nThe demographics and characteristics of treated patients are described in the below table."}, "[6]": {"experiment": "Safety (treatment-related adverse events), CC-90010-GBM-001", "type": "in vivo, human", "source_text": "as §1, §3, §2"}}, "note": "Entries after “also recorded” stand apart in the source; their conditions may differ.", "data": [{"smiles": "Cn1cc(-c2cc(S(C)(=O)=O)ccc2OCC2CC2)c2ccccc2c1=O", "note": "[Compound A, 4-[2-(cyclopropylmethoxy)-5-methylsulfonylphenyl]-2-methylisoquinolin-1-one]", "values": [{"measurement": "geometric mean concentration in brain tumor tissue", "setting": "[1]; at the time of resection", "result": 0.74, "unit": "µM"}, {"measurement": "geometric mean concentration in plasma", "setting": "[1]; at the time of resection", "result": 1.02, "unit": "µM"}, {"measurement": "geometric mean concentration in plasma", "setting": "[1]; at the time of resection (N=19)", "result": 389.23, "unit": "ng/mL"}, {"measurement": "Geometric mean free concentration in brain tissue", "setting": "[1]; calculated", "result": 0.028, "unit": "µM"}, {"measurement": "Kp", "setting": "[1]; human, brain tumor tissue, 30 mg, as stated in the comparison with other agents, read-out: brain tumor tissue:plasma ratio", "result": 0.14}, {"measurement": "Geometric mean concentration in CSF (cerebrospinal fluid)", "setting": "[1]; in vivo", "result": 0.14, "unit": "µM"}, {"measurement": "mean CSF:plasma ratio", "setting": "[1]; in vivo", "result": 0.17}, {"measurement": "BBB / brain tumor tissue penetration", "setting": "[1]; patients with recurrent high-grade glioma", "result": "found to penetrate the BBB and was detected in brain tumor tissue; also recorded: good tumor tissue penetration; also recorded: high brain penetrance"}, {"measurement": "Blood HEXIM1 mRNA change", "setting": "[2]; 72-96 hours following first dose", "result": "increased"}, {"measurement": "HEXIM1 mRNA increased in resected brain tumor tissue versus archival tissue, patients", "setting": "[2]; group P=0.00093", "result": "15 of 18"}, {"measurement": "Tumor HEXIM1 RNA increased, patients", "setting": "[2]; tumor", "result": "10 of 11"}, {"measurement": "PD per RANO criteria", "setting": "[3]; 17 evaluable patients", "result": 59, "unit": "%"}, {"measurement": "stable disease per RANO criteria", "setting": "[3]; 17 evaluable patients", "result": 41, "unit": "%"}, {"measurement": "median PFS", "setting": "[3]; IDH wild-type disease, 95% CI 1.4-3.6", "result": 3.0, "unit": "months"}, {"measurement": "6-month PFS rate", "setting": "[3]; IDH wild-type disease, 95% CI 2.7-40.4", "result": 16.3, "unit": "%"}, {"measurement": "6-month PFS rate", "setting": "[3]; IDH-mutant disease", "result": 0, "unit": "%"}, {"measurement": "median PFS", "setting": "[3]; IDH-mutant disease, 95% CI 0.4-1.9", "result": 1.2, "unit": "months"}, {"measurement": "Six month progression-free survival", "setting": "[3]; all evaluable", "result": 12, "unit": "%"}, {"measurement": "Median progression-free survival (PFS)", "setting": "[3]; all evaluable, 95% CI 1.4-3.3", "result": 1.9, "unit": "months"}, {"measurement": "GM AUC from 0 to 24 hours (AUC0-24)", "setting": "[4]; C1D1, 30 mg daily", "result": 5.083, "unit": "µg·h/mL"}, {"measurement": "Median tmax", "setting": "[4]; C1D4", "result": 1.9, "unit": "h"}, {"measurement": "mean t1/2", "setting": "[4]; C1D4", "result": 46, "unit": "h"}, {"measurement": "GM AUC0-24", "setting": "[4]; C1D4, 30 mg daily", "result": "11,250 ng h/mL"}, {"measurement": "geometric mean peak plasma concentration", "setting": "[4]; Day 4", "result": 1.90, "unit": "µM"}, {"measurement": "median time to peak concentration", "setting": "[4]; Day 4", "result": 1.75, "unit": "h"}, {"measurement": "geometric mean (GM) Cmax", "setting": "[4]; cycle 1, day 1 (C1D1), 30 mg daily", "result": 0.392, "unit": "µg/mL"}, {"measurement": "GM Cmax", "setting": "[4]; cycle 1, day 4 (C1D4), 30 mg daily", "result": 0.72, "unit": "µg/mL"}, {"measurement": "patients with Grade 3/4 TRAEs", "setting": "[5]; Part A adjuvant cohort", "result": 56, "unit": "%"}, {"measurement": "patients with TEAEs leading to treatment discontinuation", "setting": "[5]; Part A adjuvant cohort", "result": 11, "unit": "%"}, {"measurement": "patients with any-grade gastrointestinal TRAEs", "setting": "[5]; Part A adjuvant cohort", "result": 78, "unit": "%"}, {"measurement": "patients with grade 3/4 diarrhea", "setting": "[5]; Part A adjuvant cohort", "result": "one"}, {"measurement": "patients with thrombocytopenia TRAE, any grade", "setting": "[5]; Part A adjuvant cohort", "result": 72, "unit": "%"}, {"measurement": "patients with thrombocytopenia TRAE, grade 3/4", "setting": "[5]; Part A adjuvant cohort", "result": 50, "unit": "%"}, {"measurement": "patients with any-grade TRAEs", "setting": "[5]; Part A adjuvant cohort (Compound A + TMZ)", "result": 94, "unit": "%"}, {"measurement": "patients with Grade 3/4 TRAEs", "setting": "[5]; Part A concomitant cohort", "result": 64, "unit": "%"}, {"measurement": "patients with TEAEs leading to treatment discontinuation", "setting": "[5]; Part A concomitant cohort", "result": 7, "unit": "%"}, {"measurement": "patients with gastrointestinal TRAEs", "setting": "[5]; Part A concomitant cohort", "result": 93, "unit": "%"}, {"measurement": "patients with grade 3/4 TRAE of diarrhea", "setting": "[5]; Part A concomitant cohort", "result": 7, "unit": "%"}, {"measurement": "patients with nausea, any-grade TRAE", "setting": "[5]; Part A concomitant cohort", "result": 79, "unit": "%"}, {"measurement": "patients with thrombocytopenia, any grade", "setting": "[5]; Part A concomitant cohort", "result": 71, "unit": "%"}, {"measurement": "patients with thrombocytopenia, grade 3/4", "setting": "[5]; Part A concomitant cohort", "result": 50, "unit": "%"}, {"measurement": "patients with any-grade TRAEs", "setting": "[5]; Part A concomitant cohort (Compound A + TMZ + RT)", "result": 100, "unit": "%"}, {"measurement": "treatment-related deaths", "setting": "[5]; Part A, both cohorts", "result": "no treatment-related deaths"}, {"measurement": "patients with Grade 3/4 TRAEs related to Compound A", "setting": "[5]; Part B", "result": 29, "unit": "%"}, {"measurement": "patients with Grade 3/4 neutropenia related to Compound A", "setting": "[5]; Part B", "result": 18, "unit": "%"}, {"measurement": "patients with Grade 3/4 thrombocytopenia related to Compound A", "setting": "[5]; Part B", "result": 18, "unit": "%"}, {"measurement": "patients with TRAE leading to treatment discontinuation", "setting": "[5]; Part B arm A", "result": 4, "unit": "%"}, {"measurement": "patients with TRAEs related to Compound A", "setting": "[5]; Part B arm A", "result": 86, "unit": "%"}, {"measurement": "patients with diarrhea related to Compound A", "setting": "[5]; Part B arm A", "result": 43, "unit": "%"}, {"measurement": "patients with nausea related to Compound A", "setting": "[5]; Part B arm A", "result": 46, "unit": "%"}, {"measurement": "patients with thrombocytopenia related to Compound A", "setting": "[5]; Part B arm A", "result": 46, "unit": "%"}, {"measurement": "tolerability in long-term follow-up", "setting": "[5]; adjuvant Compound A plus TMZ and concomitant Compound A plus TMZ and RT", "result": "well tolerated"}, {"measurement": "patients with Grade 3/4 TRAEs", "setting": "[6]; N=20", "result": 45, "unit": "%"}, {"measurement": "patients with grade 3/4 thrombocytopenia", "setting": "[6]; N=20", "result": 25, "unit": "%"}, {"measurement": "patients with serious TRAEs (hemiparesis and lethargy)", "setting": "[6]; N=20", "result": "one"}, {"measurement": "patients with ≥1 treatment-related adverse event (TRAE)", "setting": "[6]; N=20", "result": 90, "unit": "%"}, {"measurement": "tolerability", "setting": "[6]; in vivo", "result": "well tolerated"}]}]}
